Measurements from patent publication US20090325952A1, “PYRAZOLO[3,4-B]PYRIDINE COMPOUNDS, AND THEIR USE AS PDE4 INHIBITORS” (Glaxo Group Limited, priority 2006, published 2009).
Where a name gives a salt, the structure may show the parent alone.

Tests used:
[1] = test system: atopic dermatitis patients; conditions: cited from earlier work
[2] = test system: LPS-induced pulmonary neutrophilia in rats; experiment: In Vivo Assay 1: LPS induced pulmonary neutrophilia in rats, intratracheal administration; set-up: species or system rat; conditions: rats, i.t. dry powder blended in lactose; for arithmetic mean inhibition of LPS-induced pulmonary neutrophilia: about 2 hours prior to LPS
Excerpt: This assay is an animal model of acute inflammation in the lung—specifically neutrophilia induced by lipopolysaccharide (LPS)—and allows the study of putative inhibition of such neutrophilia (anti-inflammatory effect) by an intratracheally (i.t.) administered PDE4 inhibitor (“drug”). The PDE4 inhibitors are suitably in dry powder, aqueous solution or aqueous suspension form. I.t. administration is one model of inhaled administration, allowing topical delivery to the lung.
Animals: Male CD (Sprague Dawley Derived) rats supplied by Charles River, United Kingdom are housed in groups of 5 rats per cage, acclimatised after delivery for at least 7 days with bedding/nesting material regularly changed, fed on SDS diet R1 pelleted food given ad lib, and supplied with daily-changed pasteurised animal grade drinking water.
Device for dry powder administration: For these studies, a Penn Century DP-4 dry powder intratracheal (i.t.) delivery device (insufflator) is used for administration of a dry powder blend of vehicle (inhalation grade lactose) and the PDE4 inhibitor compound or salt of the invention (“drug”). Each device is numbered and the sample loading chamber is unscrewed from the main device and weighed. The i.t. delivery needle is also weighed. The drug+lactose blend or inhalation grade lactose (vehicle control) is then added to the sample chamber and this is then re-weighed. The sample chamber is fitted back on to the main device to prevent any drug being lost. This procedure is repeated for all of the Penn century devices to be used in the study (one separate device for each animal). After dosing to the animals, the sample chambers and needles are re-weighed in order to determine the amount of sample that was expelled from the device.
Device for aqueous solution administration: A blunt dosing needle, whose forward end is slightly angled to the needle axis, is used, with a flexible plastic portex canula inserted into the needle. The portex cannula is inserted into the lumen of the blunt stainless steel dosing needle and this is carefully inserted into the back of the animal's throat and into the trachea via the larynx. A known volume (200 microlitres) of the vehicle (0.2% Tween 80™ in saline) or of the solution (or suspension) drug composition is administered into the trachea using a plastic syringe that is attached to the portex cannula and dosing needle. A new internal cannula is used for each different drug group. After dosing, the needle is removed from the trachea and the animals are removed from the table and continually observed until they recover from the effects of anaesthesia. The animals are then returned to the holding cages and given free access to food and water, and are observed and any unusual behavioural changes noted. (Aqueous suspensions can be handled generally similarly.)
Drugs and Materials: Lipopolysaccharide (LPS) (Serotype:0127:B8, e.g. from Sigma, UK; e.g. L3129 prepared by phenol extraction) is dissolved in phosphate-buffered saline (PBS).
For dry powder, aqueous solution or aqueous suspension administration, PDE4 inhibitors are preferably used in size-reduced (e.g. micronised) form, for example according to the Micronisation Example(s) disclosed herein.
For dry powder administration of the drug, the PDE4 inhibitor compound or salt of the invention (drug) is administered as a dry powder blended with inhalation-grade (respiratory-grade) lactose, i.e. as a dry powder composition. The target quantity of dry powder composition administered i.t. to each animal is 2 mg. This remains constant throughout the studies. To achieve different doses, blends of the drug dry powder and lactose, containing different concentrations of the PDE4 inhibitor compound or salt of the invention (drug), are prepared. […]

[3] = test system: LPS-induced nasal neutrophilia in rats; experiment: In Vivo Assay 2: LPS induced nasal neutrophilia in rats, intranasal administration; set-up: species or system rat; conditions: for inhibition (arithmetic mean) of LPS-induced nasal neutrophilia: rats, i.n. aqueous solution, about 30 minutes prior to LPS
Excerpt: This assay is an animal model of acute inflammation in the nose—specifically neutrophilia induced by lipopolysaccharide (LPS)— and allows the study of putative inhibition of such neutrophilia (anti-inflammatory effect) by an intranasally (i.n.) administered PDE4 inhibitor (“drug”). The PDE4 inhibitor is preferably in the form of an aqueous suspension or aqueous solution. Bolus, i.n. administration allows topical delivery to the nose.
Animals: Male CD rats (Sprague Dawley derived), weighing between 300-350 g are supplied by Charles River, UK and transported to the test site. On arrival at the test site, the animals are housed in groups of 4 or 5 per cage and complete a minimum acclimatisation period of 7 days. The animals are housed in solid bottomed cages using grade 8 sawdust. The bedding and nesting materials are changed 3 times per week. Diet comprises SDS diet R1 pelleted food given ad lib. Pasteurised animal grade drinking water is supplied and changed daily.
Lipopolysaccharide (Serotype: 0127:B8, e.g. available from Sigma, UK; e.g. L3129 prepared by phenol extraction) is used for all studies and is dissolved in phosphate-buffered saline (PBS).
Tween 80™ (e.g. available from Sigma e.g. 023K 01575). A mixture of 0.2% Tween 80™ in phosphate buffered saline (PBS) is prepared as vehicle for solution compositions. The Sigma catalogue 2004-2005 and The Handbook of Pharmaceutical Excipients (HPE) 4th edition 2003 pp. 479-483 define Tween 80™ as a brand of polysorbate 80 (according to HPE, polysorbate 80 is also named polyoxyethylene 20 sorbitan monooleate, i.e. having been copolymerised with about 20 moles of ethylene oxide for each mole of sorbitol and/or sorbitol anhydrides used).
The PDE4 inhibitor compound or salt of the invention (“drug”) is preferably used in size-reduced (e.g. micronised) form, for example according to the Micronisation Example(s) disclosed herein.
A solution of compound (0.7 mg/ml) is generally prepared by adding 0.2% Tween 80™ in phosphate buffered saline (PBS) to a pre-weighed micronised sample of the drug. The solution composition is sonicated, e.g. for approximately 2 min, and is observed to be a solution (if it is a solution) by visual assessment. A fixed volume of 50 microlitres (25 microlitres into each nostril) of either the drug-containing solution composition or a saline/Tween 80™ vehicle is administered to all animals. Each animal weighs, on average, 350 g. To achieve a dose of 100 μg/kg (100 ug/kg), each animal receives a total of 35 μg (35 ug) of the drug. The dose volume is 50 microlitres (25 microlitres to each nostril), and therefore a concentration of 35 μg (ug) per 50 microlitres (0.7 mg/ml) is prepared. To achieve lower dose concentrations, serial dilutions are prepared in saline/Tween 80™
Intranasal dosing with the PDE4 inhibitor (drug): Rats are anaesthetised by placing the animals in a sealed Perspex chamber and exposing them to a gaseous mixture of isofluorane (5%), nitrous oxide (2 L/min) and oxygen (1 L/min). Once anaesthetised, the animals are i.n. dosed with vehicle or PDE4 inhibitor aqueous compositions using a 10-100-microlitre-range Gilson pipette and plastic disposable tip. A volume of 25 microlitres is administered into each nostril by carefully inserting the pipette tip into the nostril and dispensing the required volume. When the dosing procedure is completed, the animal is returned to the cage and observed at regular intervals until it had recovered from the effects of the anaesthetic. […]

[4] = Gravimetric vapour sorption / moisture uptake of solid forms; format: physicochemical
Excerpt: In addition, water is believed to be readily lost from the Form 2 hydrate (a) on heating to only slightly above room temperature and/or (b) on reduction in the relative humidity (R^H) (e.g. water appears to be lost from the Form 2 hydrate when the R^H is reduced to 0% R^H).

[5] = test system: COPD patients; conditions: cited from earlier work
[6] = test system: COPD patients; conditions: cited from earlier work; remark: listed apart in the source
[7] = test system: humans with histories of allergic rhinitis; conditions: orally 500 ug once daily for 9 days, intranasal allergen provocation (pollen extracts); cited from earlier work

For `COc1ccc(C2CNC(=O)NC2)cc1O[C@H]1C[C@@H]2CC[C@H]1C2` [CP80,633], the inflammatory parameters ([1]; atopic dermatitis patients, 0.5% ointment, twice daily topical application) is listed as “reductions of inflammatory parameters”.

For `CCc1nc2c(cnn2CC)c(NC2CCOCC2)c1CNC(=O)c1ccc(NC(=O)CCCCCCCN(C)CCO)cc1` [Example 1A2, N-{[1,6-diethyl-4-(tetrahydro-2H-pyran-4-ylamino)-1H-pyrazolo[3,4-b]pyridin-5-yl]methyl}-4-({8-[(2-hydroxyethyl)(methyl)amino]octanoyl}amino)benzamide monohydrochloride], the “arithmetic mean inhibition of LPS-induced pulmonary neutrophilia” value (from here on “arithmetic mean inhibition”) ([2]; about 10 micrograms/kg) was “about 29%”, the “arithmetic mean inhibition” value ([2]; about 30 micrograms/kg) was “about 44%” and the “arithmetic mean inhibition” value ([2]; about 100 micrograms/kg) was “about 39%”. For the same compound, the “inhibition of LPS-induced pulmonary neutrophilia” value ([2]; about 100 micrograms/kg, about 4 hours prior to LPS) was “about 60%”, the “arithmetic mean inhibition” value ([2]; about 300 micrograms/kg) was “about 55%” and the “estimated ED50 for inhibition of LPS-induced nasal neutrophilia” value ([3]; rat, i.n., micronised, aqueous solution in 0.2% Tween 80 in PBS, about 30 minutes prior to LPS challenge) was “approximately 4.6 micrograms/kg body weight”. For the same compound, the “inhibition (arithmetic mean) of LPS-induced nasal neutrophilia” value (“inhibition (arithmetic mean)” below) ([3]; about 1 micrograms/kg) was “essentially no inhibition”, the “inhibition (arithmetic mean)” value ([3]; about 3 micrograms/kg) was “small and non-statistically-significant inhibition” and the “inhibition (arithmetic mean)” value ([3]; about 10 micrograms/kg) was “about 62%”. For the same compound, the “inhibition (arithmetic mean)” value ([3]; about 100 micrograms/kg) was “about 79%”.

For `CCc1nc2c(cnn2CC)c(NC2CCOCC2)c1CNC(=O)c1ccc(NC(=O)CCCCCCCN(C)CCO)cc1` [N-{[1,6-Diethyl-4-(tetrahydro-2H-pyran-4-ylamino)-1H-pyrazolo[3,4-b]pyridin-5-yl]methyl}-4-({8-[(2-hydroxyethyl)(methyl)amino]octanoyl}amino)benzamide monohydrochloride], the “moisture uptake, % weight gain” value ([4]; 25° C., RH increased from 30% to 75%) was “about 0.5%”.

In the case of `CCc1nc2c(cnn2CC)c(NC2CCOCC2)c1CNC(=O)c1ccc(NC(=O)CCCCCCCN(C)CCO)cc1` [N-{[1,6-diethyl-4-(tetrahydro-2H-pyran-4-ylamino)-1H-pyrazolo[3,4-b]pyridin-5-yl]methyl}-4-({8-[(2-hydroxyethyl)(methyl)amino]octanoyl}amino)benzamide monohydrochloride], the “propensity to take up water as relative humidity increases” value ([4]; compared with Form 1 anhydrate) is reported as “greater propensity to take up water than the crystalline monohydrochloride Form 1 anhydrate”.

For `COc1ccc([C@]2(C#N)CC[C@@H](C(=O)O)CC2)cc1OC1CCCC1` [cilomilast], the “forced expiratory volume in 1 s (FEV1)” value ([5]; 15 mg orally twice daily) is listed as “appears to improve” and the antiinflammatory effects [6] is listed as “appears to have antiinflammatory effects”.

For `Nc1nc2c([nH]1)c(=O)n(CC1CC1)c(=O)n2CC1CC1` [cipamfylline], the “efficacy in the treatment of atopic dermatitis patients” value ([1]; 0.15% cream, versus vehicle and hydrocortisone 17-butyrate (0.1%) cream) is listed as “significantly more effective than vehicle, but significantly less effective than hydrocortisone 17-butyrate (0.1%) cream”.

For `O=C(Nc1c(Cl)cncc1Cl)c1ccc(OC(F)F)c(OCC2CC2)c1` [roflumilast], the FEV1 [5] is listed as “small improvements” and the “rhinal airflow during the treatment period (compared to placebo)” value [7] is listed as “effective in improving rhinal airflow”.
